The target of this test is T1, hVR1 (Homo sapiens, UniProt Q8NER1).
T1 construct: expressed in transfected cells; host or cells: HEK293
Kind of test: Human VR1 (hVR1) Functional Assay (FLIPR intracellular calcium, capsaicin challenge). Type of test: cell-based. Conditions: capsaicin 0.030 μM, HEK293 cells expressing hVR1; for inhibition at 1 µM: test concentration 1 μM. On the technique in general: A change in cytosolic calcium serves as a functional read-out for many receptors and channels.

This is an account of results in US7951829B2, “Benzimidazole modulators of VR1” (Janssen Pharmaceutica NV, priority 2006, dated 2011).

T1 sequence (Q8NER1 whole entry): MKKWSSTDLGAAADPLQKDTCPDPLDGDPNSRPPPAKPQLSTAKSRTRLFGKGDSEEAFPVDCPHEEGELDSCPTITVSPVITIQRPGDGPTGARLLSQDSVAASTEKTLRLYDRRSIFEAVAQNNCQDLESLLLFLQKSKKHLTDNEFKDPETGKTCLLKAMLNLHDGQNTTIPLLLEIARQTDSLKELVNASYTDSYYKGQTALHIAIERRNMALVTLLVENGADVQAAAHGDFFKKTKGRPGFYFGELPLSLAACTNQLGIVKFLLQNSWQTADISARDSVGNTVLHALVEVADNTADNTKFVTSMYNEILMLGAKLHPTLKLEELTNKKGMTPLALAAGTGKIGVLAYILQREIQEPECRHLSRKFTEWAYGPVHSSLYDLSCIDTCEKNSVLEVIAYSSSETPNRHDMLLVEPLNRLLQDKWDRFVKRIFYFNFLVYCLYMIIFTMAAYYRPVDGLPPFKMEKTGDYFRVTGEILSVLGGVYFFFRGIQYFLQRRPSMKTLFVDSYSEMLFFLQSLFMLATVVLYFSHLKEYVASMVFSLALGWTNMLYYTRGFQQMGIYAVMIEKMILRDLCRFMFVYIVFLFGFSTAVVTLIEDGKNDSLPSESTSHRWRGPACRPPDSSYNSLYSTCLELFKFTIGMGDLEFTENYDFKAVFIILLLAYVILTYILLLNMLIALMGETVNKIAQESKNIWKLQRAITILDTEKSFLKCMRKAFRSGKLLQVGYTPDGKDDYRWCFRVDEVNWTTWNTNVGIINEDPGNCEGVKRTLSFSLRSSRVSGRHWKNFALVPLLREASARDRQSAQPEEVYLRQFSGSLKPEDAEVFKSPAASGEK

What is called IC50 is the concentration needed to halve the response being measured. Usually inhibition stands for the share of the control response that was lost under treatment. For `CC(O)c1ccccc1-c1ccc2[nH]c(/C=C/c3ccc(C(C)(C)C)cc3)nc2c1` (stereo not drawn) [Cpd 2, (E)-1-(2-{2-[2-(4-tert-butyl-phenyl)-vinyl]-1H-benzimidazol-5-yl}-phenyl)-ethanol], the IC50 was 12 nM and the inhibition at 1 µM is 100%.
Regarding `CC(C)(C)c1ccc(/C=C/c2nc3cc(-c4cccc(C(N)=O)c4)ccc3[nH]2)cc1` [Cpd 6, (E)-3-{2-[2-(4-tert-butyl-phenyl)-vinyl]-1H-benzimidazol-5-yl}-benzamide], the inhibition at 1 µM amounted to 12%.
On the same count and under the same terms, to `CC(C)(C)c1ccc(/C=C/c2nc3cc(-c4ccc(C(N)=O)cc4)ccc3[nH]2)cc1` [Cpd 7, (E)-4-{2-[2-(4-tert-butyl-phenyl)-vinyl]-1H-benzimidazol-5-yl}-benzamide] belongs 10%; to `CC(=O)Nc1ccc(-c2ccc3[nH]c(/C=C/c4ccc(C(C)(C)C)cc4)nc3c2)cc1` [Cpd 8, (E)-N-(4-{2-[2-(4-tert-butyl-phenyl)-vinyl]-1H-benzimidazol-5-yl}-phenyl)-acetamide], 10%.
As for `CC(C)(C)OC(=O)Nc1ccccc1-c1ccc2[nH]c(/C=C/c3ccc(C(C)(C)C)cc3)nc2c1` [Cpd 10, (E)-(2-{2-[2-(4-tert-butyl-phenyl)-vinyl]-1H-benzimidazol-5-yl}-phenyl)-carbamic acid tert-butyl ester], the IC50 came to 280 nM and the inhibition at 1 µM came out at 94%.
In the same order, the values of `CC(C)(C)c1ccc(/C=C/c2nc3cc(-c4ccccc4N)ccc3[nH]2)cc1` [Cpd 11, (E)-2-{2-[2-(4-tert-butyl-phenyl)-vinyl]-1H-benzimidazol-5-yl}-phenylamine] are 210 nM and 100%.
In the same order, the values of `CC(C)(C)c1ccc(/C=C/c2nc3cc(-c4ccccc4CO)ccc3[nH]2)cc1` [Cpd 12, (E)-(2-{2-[2-(4-tert-butyl-phenyl)-vinyl]-1H-benzimidazol-5-yl}-phenyl)-methanol] are 10 nM and 100%.
The corresponding values for `NC(=O)c1ccccc1-c1ccc2[nH]c(/C=C/c3ccc(C(F)(F)F)cc3)nc2c1` [Cpd 13, (E)-2-{2-[2-(4-trifluoromethyl-phenyl)-vinyl]-1H-benzimidazol-5-yl}-benzamide] are 310 nM and 82%.
With `CC(O)c1ccccc1-c1ccc2[nH]c(/C=C/c3ccc(C(F)(F)F)cc3)nc2c1` (stereo not drawn) [Cpd 16, (E)-1-(2-{2-[2-(4-trifluoromethyl-phenyl)-vinyl]-1H-benzimidazol-5-yl}-phenyl)-ethanol], the IC50 came to 45 nM and the inhibition at 1 µM turned out to be 100%.
Turning to `NC(=O)c1ccccc1-c1ccc2[nH]c(/C=C/c3ccc(OC(F)(F)F)cc3)nc2c1` [Cpd 19, (E)-2-{2-[2-(4-trifluoromethoxy-phenyl)-vinyl]-1H-benzimidazol-5-yl}-benzamide], the inhibition at 1 µM turned out to be 32%.
Regarding `CC(=O)c1ccccc1-c1ccc2[nH]c(/C=C/c3ccc(OC(F)(F)F)cc3)nc2c1` [Cpd 20, (E)-1-(2-{2-[2-(4-trifluoromethoxy-phenyl)-vinyl]-1H-benzimidazol-5-yl}-phenyl)-ethanone], the IC50 was determined as 320 nM.
On to `CC(=O)Nc1ccccc1-c1ccc2[nH]c(/C=C/c3ccc(F)c(F)c3)nc2c1` [Cpd 24, (E)-N-(2-{2-[2-(3,4-difluoro-phenyl)-vinyl]-1H-benzimidazol-5-yl}-phenyl)-acetamide], for which the inhibition at 1 µM was 8%.
The same measure, in the same setting: to `CC(=O)Nc1cccc(-c2ccc3[nH]c(/C=C/c4ccc(F)c(F)c4)nc3c2)c1` [Cpd 25, (E)-N-(3-{2-[2-(3,4-difluoro-phenyl)-vinyl]-1H-benzimidazol-5-yl}-phenyl)-acetamide] belongs 4%; to `NC(=O)c1ccccc1-c1ccc2[nH]c(/C=C/c3ccc(F)c(F)c3)nc2c1` [Cpd 26, (E)-2-{2-[2-(3,4-difluoro-phenyl)-vinyl]-1H-benzimidazol-5-yl}-benzamide], 6%.
`CS(=O)(=O)Nc1ccccc1-c1ccc2[nH]c(/C=C/c3ccc(F)c(F)c3)nc2c1` [Cpd 28, (E)-N-(2-{2-[2-(3,4-difluoro-phenyl)-vinyl]-1H-benzimidazol-5-yl}-phenyl)-methanesulfonamide]: the 50% inhibitory concentration (IC50) came to 250 nM and the inhibition at 1 µM was determined as 96%.
Turning to `CC(C)(C)c1ccc(CCCc2nc3cc(-c4ccccc4O)ccc3[nH]2)cc1` [Cpd 29, 2-{2-[3-(4-tert-butyl-phenyl)-propyl]-1H-benzimidazol-5-yl}-phenol], the inhibition at 1 µM was 6%.
As to `Cc1cccc(-c2ccc3[nH]c(CCCc4ccc(C(C)(C)C)cc4)nc3c2)c1` [Cpd 30, 2-[3-(4-tert-butyl-phenyl)-propyl]-5-m-tolyl-1H-benzimidazole], the inhibition at 1 µM amounted to 10%.
In the case of `CC(C)(C)c1ccc(CCc2nc3cc(-c4cccc(O)c4)ccc3[nH]2)cc1` [Cpd 33, 3-{2-[2-(4-tert-butyl-phenyl)-ethyl]-1H-benzimidazol-5-yl}-phenol], the IC50 came to 1700 nM.
Consider `CC(C)(C)c1ccc(CCc2nc3cc(-c4ccc(O)cc4)ccc3[nH]2)cc1` [Cpd 34, 4-{2-[2-(4-tert-butyl-phenyl)-ethyl]-1H-benzimidazol-5-yl}-phenol], for which the inhibition at 5 µM (test concentration 5 μM (footnote 1)) is 75%.
With `OCc1ccccc1-c1ccc2[nH]c(/C=C/c3ccc(SC(F)(F)F)cc3)nc2c1` [Cpd 35, (E)-(2-{2-[2-(4-trifluoromethylsulfanyl-phenyl)-vinyl]-1H-benzimidazol-5-yl}-phenyl)-methanol], the concentration for half-maximal inhibition (IC50) came to 41 nM and the inhibition at 1 µM came to 100%.
On to `CC(=O)Nc1ccccc1-c1ccc2[nH]c(/C=C/c3ccc(SC(F)(F)F)cc3)nc2c1` [Cpd 37, (E)-N-(2-{2-[2-(4-trifluoromethylsulfanyl-phenyl)-vinyl]-1H-benzimidazol-5-yl}-phenyl)-acetamide], for which the inhibition at 1 µM turned out to be 18%.
In the case of `NC(=O)c1ccccc1-c1ccc2[nH]c(/C=C/c3ccc(SC(F)(F)F)cc3)nc2c1` [Cpd 38, (E)-2-{2-[2-(4-trifluoromethylsulfanyl-phenyl)-vinyl]-1H-benzimidazol-5-yl}-benzamide], the IC50 was determined as 270 nM and the inhibition at 1 µM worked out at 89%.
The corresponding values for `CC(=O)c1ccccc1-c1ccc2[nH]c(/C=C/c3ccc(SC(F)(F)F)cc3)nc2c1` [Cpd 39, (E)-1-(2-{2-[2-(4-trifluoromethylsulfanyl-phenyl)-vinyl]-1H-benzimidazol-5-yl}-phenyl)-ethanone] are 200 nM and 98%.
For the compound `O=S(=O)(c1ccc(/C=C/c2nc3cc(-c4ccccc4O)ccc3[nH]2)cc1)C(F)(F)F` [Cpd 41, (E)-2-{2-[2-(4-trifluoromethanesulfonyl-phenyl)-vinyl]-1H-benzimidazol-5-yl}-phenol], the IC50 worked out at 280 nM and the inhibition at 1 µM was 90%.
In the same order, the values of `O=S(=O)(c1ccc(/C=C/c2nc3cc(-c4ccccc4CO)ccc3[nH]2)cc1)C(F)(F)F` [Cpd 42, (E)-(2-{2-[2-(4-trifluoromethanesulfonyl-phenyl)-vinyl]-1H-benzimidazol-5-yl}-phenyl)-methanol] are 22 nM and 100%.
In the same order, the values of `CC(=O)Nc1ccccc1-c1ccc2[nH]c(/C=C/c3ccc(S(=O)(=O)C(F)(F)F)cc3)nc2c1` [Cpd 43, (E)-N-(2-{2-[2-(4-trifluoromethanesulfonyl-phenyl)-vinyl]-1H-benzimidazol-5-yl}-phenyl)-acetamide] are 890 nM and 58%.
The corresponding values for `NC(=O)c1ccccc1-c1ccc2[nH]c(/C=C/c3ccc(S(=O)(=O)C(F)(F)F)cc3)nc2c1` [Cpd 44, (E)-2-{2-[2-(4-trifluoromethanesulfonyl-phenyl)-vinyl]-1H-benzimidazol-5-yl}-benzamide] are 300 nM and 95%.
Consider `CC(O)c1ccccc1-c1ccc2[nH]c(/C=C/c3ccc(S(=O)(=O)C(F)(F)F)cc3)nc2c1` (stereo not drawn) [Cpd 45, (E)-1-(2-{2-[2-(4-trifluoromethanesulfonyl-phenyl)-vinyl]-1H-benzimidazol-5-yl}-phenyl)-ethanol], for which the IC50 is 16 nM and the inhibition at 1 µM turned out to be 100%.
In the same order, the values of `CC(O)c1ccccc1-c1ccc2[nH]c(CCc3ccc(S(=O)(=O)C(F)(F)F)cc3)nc2c1` (stereo not drawn) [Cpd 46, 1-(2-{2-[2-(4-trifluoromethanesulfonyl-phenyl)-ethyl]-1H-benzimidazol-5-yl}-phenyl)-ethanol] are 46 nM and 100%.
For `CC(C)(C)c1ccc(/C=C/c2nc3cc(-c4ccccc4O)c(C(F)(F)F)cc3[nH]2)cc1` [Cpd 48, (E)-2-{2-[2-(4-tert-butyl-phenyl)-vinyl]-6-trifluoromethyl-1H-benzimidazol-5-yl}-phenol], the inhibition at 1 µM was found to be 33%.
On to `CC(C)(C)c1ccc(/C=C/c2nc3cc(-c4cccc(O)c4)c(C(F)(F)F)cc3[nH]2)cc1` [Cpd 49, (E)-3-{2-[2-(4-tert-butyl-phenyl)-vinyl]-6-trifluoromethyl-1H-benzimidazol-5-yl}-phenol], for which the inhibition at 1 µM was determined as 16%.
On the same count and under the same terms, in the case of `CC(C)(C)c1ccc(/C=C/c2nc3cc(-c4ccccc4F)c(C(F)(F)F)cc3[nH]2)cc1` [Cpd 52, (E)-2-[2-(4-tert-butyl-phenyl)-vinyl]-5-(2-fluoro-phenyl)-6-trifluoromethyl-1H-benzimidazole] it was 28%.
Turning to `CC(C)(C)c1ccc(/C=C/c2nc3cc(-c4ccccc4C(N)=O)c(C(F)(F)F)cc3[nH]2)cc1` [Cpd 53, (E)-2-{2-[2-(4-tert-butyl-phenyl)-vinyl]-6-trifluoromethyl-1H-benzimidazol-5-yl}-benzamide], the IC50 turned out to be 47 nM and the inhibition at 1 µM amounted to 98%.
Turning to `CC(C)(C)OC(=O)Nc1ccccc1-c1cc2nc(/C=C/c3ccc(C(C)(C)C)cc3)[nH]c2cc1C(F)(F)F` [Cpd 54, (E)-(2-{2-[2-(4-tert-butyl-phenyl)-vinyl]-6-trifluoromethyl-1H-benzimidazol-5-yl}-phenyl)-carbamic acid tert-butyl ester], the inhibition at 1 µM is 20%.
